One data set concerns Tritrichomonas foetus. Description: Antiprotozoal activity against Tritrichomonas foetus KV1 assessed as protozoal growth inhibition measured after 72 hrs under anaerobic conditions. Type of data set: functional. The conditions noted are these: KV1, 72 h.
Another data set relates to Giardia intestinalis. The data set is described as follows: Antiprotozoal activity against Giardia duodenalis 713 assessed as protozoal growth inhibition measured after 96 hrs under anaerobic conditions. The class given is functional. The conditions noted are these: Giardia duodenalis, 713, 96 h.
For the next data set, the system named is Candida albicans. Description: Antifungal activity against Candida albicans ATCC 10231 assessed as fungal growth inhibition measured after 48 hrs by bromocresol green dye based assay. Type of data set: functional.
The test system of the next data set is Escherichia coli. The data set is described as follows: Antibacterial activity against Escherichia coli ATCC 25922 assessed as bacterial growth inhibition measured after 48 hrs by resazurin assay. The conditions noted are these: ATCC 25922, 48 h. Type of data set: functional. A general note: The colour change of resazurin is a common sign of viable cells or microbes.

A short description of data set [1]: Cytotoxicity against mouse NS1 cells assessed as cell growth inhibition measured after 96 hrs by resazurin assay. The note with it: read-out: MIC. The class given is cell-based.
The test system of another data set is Bacillus spizizenii. The data set is described as follows: Antibacterial activity against Bacillus subtilis ATCC 6633 assessed as bacterial growth inhibition measured after 48 hrs by resazurin assay. Type of data set: functional. The conditions noted are these: ATCC 6633, 48 h.
Data set [2] in a line: Cytotoxicity against human NFF cells assessed as cell growth inhibition measured after 96 hrs by resazurin assay. The class given is cell-based. The note with it: read-out: MIC.

Values after ≈ are worked out from the molar mass of the structure shown.

MIC and MCC data for eight compounds are collected here from ChEMBL document CHEMBL4414677, “Albanitriles A-G: Antiprotozoal Polyacetylene Nitriles from a Mycale Marine Sponge” (J Nat Prod, 2019).

With `Cc1ncc([N+](=O)[O-])n1CCO` [METRONIDAZOLE], the MIC is 1.2 µM (≈ 0.205 µg/mL) with Tritrichomonas foetus and 2.9 µM (≈ 0.496 µg/mL) in the data set on Giardia intestinalis.
For `N#CCCCCC#CC#CC#CCCCCCC=O`, the MIC is greater than 400 µM with Candida albicans (ATCC 10231, 48 h); 200 µM (≈ 50.7 µg/mL) in the data set with Tritrichomonas foetus; greater than 400 µM in the data set with Escherichia coli; 400 µM (≈ 101 µg/mL) in the data set on Giardia intestinalis; 400 µM (≈ 101 µg/mL) in the data set on Bacillus spizizenii. For the same compound, the MCC at 96 h in data set [1] worked out at 100 µM; in data set [2], 50 µM.
On to `CN(C)[C@@H]1C(O)=C(C(N)=O)C(=O)[C@@]2(O)C(O)=C3C(=O)c4c(O)cccc4[C@@](C)(O)[C@H]3C[C@@H]12` [TETRACYCLINE], for which the MIC came to 14 µM (≈ 6.22 µg/mL) in the data set on Escherichia coli and 0.9 µM (≈ 0.4 µg/mL) in the data set with Bacillus spizizenii.
Regarding `CSC[S@+]([O-])C[C@H](CO)NC(=O)/C=C/c1c(C)[nH]c(=O)[nH]c1=O`, the results for the MCC at 96 h in data set [1] and in data set [2] were 0.55 µM and 1.7 µM, respectively.
With `N#CCCCCC#CC#CC#CCCCCCCC#N`, the MIC with Candida albicans (ATCC 10231, 48 h) is greater than 400 µM; in the data set on Tritrichomonas foetus it was 190 µM (≈ 50.2 µg/mL); in the data set on Escherichia coli, greater than 400 µM; in the data set on Giardia intestinalis it was 12 µM (≈ 3.17 µg/mL); in the data set with Bacillus spizizenii, 400 µM (≈ 106 µg/mL). The MCC at 96 h in data set [1] stood at 50 µM; in data set [2], 100 µM.
With `N#CCCCCC#CC#CC#CCCCCCC#N`, the MIC in the data set with Candida albicans (ATCC 10231, 48 h) was greater than 400 µM; in the data set with Tritrichomonas foetus, 200 µM (≈ 50.1 µg/mL); in the data set on Escherichia coli it was greater than 400 µM; in the data set on Giardia intestinalis it was 25 µM (≈ 6.26 µg/mL); with Bacillus spizizenii it was greater than 400 µM. The MCC at 96 h in data set [1] is 50 µM; in data set [2], 100 µM.
As for NYSTATIN, the MIC in the data set on Candida albicans was 1.7 µM.
`N#CCCCCC#CC#CC#CCCCCCC(O)C#N` (stereo not given): the MIC with Candida albicans (ATCC 10231, 48 h) is greater than 360 µM; with Tritrichomonas foetus it was greater than 360 µM; in the data set with Escherichia coli it was greater than 360 µM; in the data set on Giardia intestinalis it was 90 µM (≈ 25.2 µg/mL); in the data set on Bacillus spizizenii, 90 µM (≈ 25.2 µg/mL). For the same compound, the MCC at 96 h was 180 µM in data set [1] and 90 µM in data set [2].

By MIC is commonly meant the least concentration at which growth counts as inhibited.
